Reference: PubChem BioAssay (NCI)
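Protocol summary: plate cells (96-well), add compound at 5 concentrations, incubate 48 h, interpolate endpoints linearly. GI50 is the concentration that inhibits growth by half. At the TGI there is no net growth.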

System: HCT-116 colon
Assay: inhibition of tumour cell growth, NCI panel, 48 h

Compound	TGI [µM]	GI50 [µM]
CCCCCCCCCc1cc(=O)c2c(O)cccc2o1	> 100	–
CCOC(=O)CCc1c(C)c2c(OC(C)=O)cc(OC(C)=O)cc2oc1=O	> 100	–
O=C(CN1CCCCC1)N1CCc2c([nH]c3ccccc23)C1c1cccnc1 (centres undefined)	> 100	–
COC(=O)C12C3C4C5(C(=O)OC)C(C1C35C(=O)N(C(C)C)C(C)C)C42C(=O)N(C(C)C)C(C)C (centres undefined)	33.6	–
COc1ccc(C2C(C#N)=C(N)OC3=C2COc2ccc(F)cc23)cc1OC (centres undefined)	36.1	12
Cc1cc(C)n(CCNCCn2nc(C)cc2C)n1	> 100	–
O=C1CSC(Cc2nc3ccccc3[nH]2)=N1	27.6	–
O=C(/C=C/c1ccccc1)/C=C/c1ccccc1	32.1	–
N#C/C(=C\c1ccc(O)c(O)c1)C(N)=O	67.9	–
CCOC(=O)C1=C(C)N(N)C(=S)NC1c1ccc(C)cc1 (centres undefined)	> 100	65.3
N#CC(C(=O)/C(=N/Nc1nc(=S)[nH]n1N)C(C#N)c1ccccc1)c1ccccc1 (centres undefined)	> 100	–
O=C(O)c1ccccc1-c1ccccc1C(=O)Nc1ccc2c(c1)Cc1cc(F)ccc1-2	33	–
CN(C)Cc1c[nH]c2c1C(=O)c1c(c(O)c3ccccc3c1O)C2=O	34.8	8.17
N#CC(C#N)=c1[nH]c2cccc3c2-c2c(cccc2c3=C(C#N)C#N)[nH]1	> 100	–

System: MOLT-4 leukemia
Assay: inhibition of tumour cell growth, NCI panel, 48 h

Compound	GI50 [µM]	TGI [µM]
CC(=O)Oc1ccccc1C(=O)N=C1[Se]CCN1C(=O)c1ccccc1OC(C)=O	0.621	> 100
O=S(O)CCCCSSCc1ccccc1CSSCCCCS(=O)O	–	14.5
O=C(O)Cc1c(O)ccc2ccccc12	–	> 100
CCOC(=O)c1[nH]c(COC(C)=O)c(CCCOC(C)=O)c1CCCOC(C)=O	–	> 100
CSC1(CC(=O)N(C)C)C(=O)Nc2ccccc21 (centres undefined)	–	> 100
C#C[C@]1(O)CC[C@H]2[C@@H]3CC=C4c5sc(Nc6ccccc6)nc5CC[C@]4(C)[C@H]3CC[C@@]21C	0.577	12.4
COc1ccc(/C=c2/sc3n(c2=O)C(c2ccc(OC)c(OC)c2)C2=C(N=3)c3cc(F)ccc3OC2)cc1 (centres undefined)	> 22.7	> 100
O=C(Nc1ccc([N+](=O)[O-])cc1)C1C(=O)C(=O)N(c2ccc([N+](=O)[O-])cc2)C1=O (centres undefined)	–	> 100
Cc1cn2c(/C=C3/C(=O)Nc4ccccc43)c(-c3ccc(Cl)cc3)nc2s1	16.9	47.4
O=C(CCC/C(CC(=O)c1ccc(Br)cc1)=N\O)Nc1ccccc1	–	> 100
O=C(/C=C/c1c(O)ccc2ccccc12)c1ccc2ccccc2c1	–	> 100
COc1ccccc1NC(=O)C1=C(C)NC(C)=C(C(=O)Nc2ccccc2OC)C1c1ccc([N+](=O)[O-])cc1	–	> 100
Nc1nc(Nc2ccccc2)c2ncn(Cc3cc4c(cc3Br)OCO4)c2n1	0.196	> 100
O=C(CSc1nnc(-c2ccccc2NC(=O)C(F)(F)F)c(=O)[nH]1)NC(=O)Nc1ccccc1	–	> 100
O=C1c2ccn(CCCCNC(CO)(CO)CO)c2C(=O)c2c1c(O)c1ccccc1c2O	2.27	4.2
COC(=O)/C=C/C1C(C(=O)OC)C2(C(=O)OC)CCC1(C(=O)OC)N2 (centres undefined)	–	> 100
CC(C)(C)N1CC2(CCCCC2)C1=O	–	> 100
COc1ccc(-c2cc(-c3cccn3C)c(C#N)c(N)n2)cc1OC	46.8	> 100

Compound	GI50 [µM]	TGI [µM]
COc1ccc(C(=O)C(CO)Oc2ccccc2OC)cc1OC (centres undefined)	–	> 100
N#CC(/C(=N/NC(=O)C(=O)NN)C(=O)NC12CC3CC(CC(C3)C1)C2)c1ccccc1 (centres undefined)	–	> 100
CC(C)(C)C(=O)/C=C/c1ccc(Oc2ccccc2)cc1	–	42.4
CN=NN(C)C(=O)NC	–	> 100
Nc1c(C(=O)N/N=C/c2ccc(-c3ccc(Cl)cc3)o2)cnn1-c1ccnc2c(C(F)(F)F)cccc12	50.8	> 100
c1ccc2c3ccn4cc5c(cc4c-3nc2c1)CCCC5	2.45	12.5
CCCCCCCCCc1cc(=O)c2c(O)cccc2o1	–	89.5
O=C(CN1CCCCC1)N1CCc2c([nH]c3ccccc23)C1c1cccnc1 (centres undefined)	–	> 100
COC(=O)C12C3C4C5(C(=O)OC)C(C1C35C(=O)N(C(C)C)C(C)C)C42C(=O)N(C(C)C)C(C)C (centres undefined)	–	> 50
COc1ccc(C2C(C#N)=C(N)OC3=C2COc2ccc(F)cc23)cc1OC (centres undefined)	49.5	> 100
Cc1cc(C)n(CCNCCn2nc(C)cc2C)n1	–	> 100
O=C1CSC(Cc2nc3ccccc3[nH]2)=N1	–	> 100
O=C(/C=C/c1ccccc1)/C=C/c1ccccc1	–	86.5
N#C/C(=C\c1ccc(O)c(O)c1)C(N)=O	–	38.6
CCOC(=O)C1=C(C)N(N)C(=S)NC1c1ccc(C)cc1 (centres undefined)	45.7	> 100
O=C(O)c1ccccc1-c1ccccc1C(=O)Nc1ccc2c(c1)Cc1cc(F)ccc1-2	–	> 100
CN(C)Cc1c[nH]c2c1C(=O)c1c(c(O)c3ccccc3c1O)C2=O	3.42	> 100
N#CC(C#N)=c1[nH]c2cccc3c2-c2c(cccc2c3=C(C#N)C#N)[nH]1	–	> 100

System: MDA-MB-231 breast
Assay: inhibition of tumour cell growth, NCI panel, 48 h

Compound	GI50 [µM]	TGI [µM]
CC(=O)Oc1ccccc1C(=O)N=C1[Se]CCN1C(=O)c1ccccc1OC(C)=O	0.472	3.06
O=C(O)Cc1c(O)ccc2ccccc12	–	> 100
C#C[C@]1(O)CC[C@H]2[C@@H]3CC=C4c5sc(Nc6ccccc6)nc5CC[C@]4(C)[C@H]3CC[C@@]21C	2.01	6.8
COc1ccc(/C=c2/sc3n(c2=O)C(c2ccc(OC)c(OC)c2)C2=C(N=3)c3cc(F)ccc3OC2)cc1 (centres undefined)	14.8	> 75.1
Cc1cn2c(/C=C3/C(=O)Nc4ccccc43)c(-c3ccc(Cl)cc3)nc2s1	2.34	9.45
Nc1nc(Nc2ccccc2)c2ncn(Cc3cc4c(cc3Br)OCO4)c2n1	0.0497	> 51.9
O=C1c2ccn(CCCCNC(CO)(CO)CO)c2C(=O)c2c1c(O)c1ccccc1c2O	0.457	2.26
COc1ccc(-c2cc(-c3cccn3C)c(C#N)c(N)n2)cc1OC	38.3	> 100
Nc1c(C(=O)N/N=C/c2ccc(-c3ccc(Cl)cc3)o2)cnn1-c1ccnc2c(C(F)(F)F)cccc12	> 100	> 100
c1ccc2c3ccn4cc5c(cc4c-3nc2c1)CCCC5	4.47	20.8
COc1ccc(C2C(C#N)=C(N)OC3=C2COc2ccc(F)cc23)cc1OC (centres undefined)	14.3	58.8
CCOC(=O)C1=C(C)N(N)C(=S)NC1c1ccc(C)cc1 (centres undefined)	1.2	> 100
N#CC(C(=O)/C(=N/Nc1nc(=S)[nH]n1N)C(C#N)c1ccccc1)c1ccccc1 (centres undefined)	–	> 100
O=C(O)c1ccccc1-c1ccccc1C(=O)Nc1ccc2c(c1)Cc1cc(F)ccc1-2	–	83.2
CN(C)Cc1c[nH]c2c1C(=O)c1c(c(O)c3ccccc3c1O)C2=O	11.6	25

System: HL-60(TB) leukemia
Assay: inhibition of tumour cell growth, NCI panel, 48 h

Compound	GI50 [µM]	TGI [µM]
CC(=O)Oc1ccccc1C(=O)N=C1[Se]CCN1C(=O)c1ccccc1OC(C)=O	0.708	8.47
O=S(O)CCCCSSCc1ccccc1CSSCCCCS(=O)O	–	36.2
CCOC(=O)c1[nH]c(COC(C)=O)c(CCCOC(C)=O)c1CCCOC(C)=O	–	> 100
COc1ccc(/C=c2/sc3n(c2=O)C(c2ccc(OC)c(OC)c2)C2=C(N=3)c3cc(F)ccc3OC2)cc1 (centres undefined)	33.1	> 94.6
O=C(Nc1ccc([N+](=O)[O-])cc1)C1C(=O)C(=O)N(c2ccc([N+](=O)[O-])cc2)C1=O (centres undefined)	–	> 100
O=C(CCC/C(CC(=O)c1ccc(Br)cc1)=N\O)Nc1ccccc1	–	> 100
O=C(/C=C/c1c(O)ccc2ccccc12)c1ccc2ccccc2c1	–	> 100
CCOC(=O)C1N(S(=O)(=O)c2ccc(C)cc2)CCC12C(c1ccc(OC)cc1)NC1CCCCC12 (centres undefined)	–	> 100
COc1ccccc1NC(=O)C1=C(C)NC(C)=C(C(=O)Nc2ccccc2OC)C1c1ccc([N+](=O)[O-])cc1	–	> 100
Nc1nc(Nc2ccccc2)c2ncn(Cc3cc4c(cc3Br)OCO4)c2n1	0.0358	1.26
O=C1c2ccn(CCCCNC(CO)(CO)CO)c2C(=O)c2c1c(O)c1ccccc1c2O	2.56	21
COC(=O)/C=C/C1C(C(=O)OC)C2(C(=O)OC)CCC1(C(=O)OC)N2 (centres undefined)	–	> 100
CC(C)(C)N1CC2(CCCCC2)C1=O	–	> 100
